Assay results from PubChem BioAssay (NCI).
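The concentration for 50% growth inhibition is given as GI50. At the TGI there is no net growth.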

Assays:
Experiment in all cases: growth of human tumour cells (NCI), 384-well format
SN12C renal = tested on: SN12C renal
TK-10 renal = tested on: TK-10 renal
MDA-MB-435 melanoma = tested on: MDA-MB-435 melanoma
T-47D breast = tested on: T-47D breast
UACC-62 melanoma = tested on: UACC-62 melanoma
RPMI-8226 leukemia = tested on: RPMI-8226 leukemia
HS 578T breast = tested on: HS 578T breast
U251 glioblastoma = tested on: U251 glioblastoma
SW-620 colon = tested on: SW-620 colon
SNB-75 CNS = tested on: SNB-75 CNS
HOP-92 NSCLC = tested on: HOP-92 NSCLC
COLO 205 colon = tested on: COLO 205 colon
LOX IMVI melanoma = tested on: LOX IMVI melanoma
CAKI-1 renal = tested on: CAKI-1 renal
786-0 renal = tested on: 786-0 renal
A549 NSCLC = tested on: A549 NSCLC
CCRF-CEM leukemia = tested on: CCRF-CEM leukemia
HCC-2998 colon = tested on: HCC-2998 colon
SF-295 CNS = tested on: SF-295 CNS
MOLT-4 leukemia = tested on: MOLT-4 leukemia
SF-539 CNS = tested on: SF-539 CNS
SK-OV-3 ovarian = tested on: SK-OV-3 ovarian
NCI-H23 lung = tested on: NCI-H23 lung
BT-549 breast = tested on: BT-549 breast
HCT-15 colon = tested on: HCT-15 colon
A498 renal = tested on: A498 renal
M14 melanoma = tested on: M14 melanoma
MDA-MB-468 breast = tested on: MDA-MB-468 breast
KM12 colon = tested on: KM12 colon
MALME-3M melanoma = tested on: MALME-3M melanoma
NCI/ADR-RES ovarian = tested on: NCI/ADR-RES ovarian
OVCAR-3 ovarian = tested on: OVCAR-3 ovarian
HOP-62 NSCLC = tested on: HOP-62 NSCLC
HT29 colon = tested on: HT29 colon
MDA-MB-231 breast = tested on: MDA-MB-231 breast
MCF7 breast = tested on: MCF7 breast
PC-3 prostate = tested on: PC-3 prostate
EKVX NSCLC = tested on: EKVX NSCLC
K-562 leukemia = tested on: K-562 leukemia
NCI-H460 NSCLC = tested on: NCI-H460 NSCLC
DU-145 prostate = tested on: DU-145 prostate
SR leukemia = tested on: SR leukemia
SK-MEL-28 melanoma = tested on: SK-MEL-28 melanoma
OVCAR-5 ovarian = tested on: OVCAR-5 ovarian
IGROV1 ovarian = tested on: IGROV1 ovarian
RXF 393 renal = tested on: RXF 393 renal
SK-MEL-5 melanoma = tested on: SK-MEL-5 melanoma
SF-268 CNS = tested on: SF-268 CNS
UO-31 renal = tested on: UO-31 renal
SK-MEL-2 melanoma = tested on: SK-MEL-2 melanoma
OVCAR-4 ovarian = tested on: OVCAR-4 ovarian
UACC-257 melanoma = tested on: UACC-257 melanoma
NCI-H522 lung = tested on: NCI-H522 lung
OVCAR-8 ovarian = tested on: OVCAR-8 ovarian
ACHN renal = tested on: ACHN renal
NCI-H322M lung = tested on: NCI-H322M lung
HL-60(TB) leukemia = tested on: HL-60(TB) leukemia
SNB-19 CNS = tested on: SNB-19 CNS
NCI-H226 lung = tested on: NCI-H226 lung

With CC1(C)CC[C@H](Nc2ncc(C(F)(F)F)c(-c3c[nH]c4c(P(C)(C)=O)c(C#N)ccc34)n2)CN1 the GI50 (SN12C renal) was less than 0.01 µM, the TGI (SN12C renal) was 2.87 µM and the GI50 (TK-10 renal) was 0.887 µM. The TGI (TK-10 renal) was 10.4 µM, the GI50 (MDA-MB-435 melanoma) was 0.114 µM and the TGI (MDA-MB-435 melanoma) was 2.72 µM. It also gave a GI50 (T-47D breast) of 0.994 µM, a TGI (T-47D breast) of 10.2 µM and a GI50 (UACC-62 melanoma) of less than 0.01 µM. The TGI (UACC-62 melanoma) was 0.0309 µM, the GI50 (RPMI-8226 leukemia) was less than 0.01 µM and the TGI (RPMI-8226 leukemia) was less than 0.01 µM. The GI50 (HS 578T breast) was 0.301 µM, the TGI (HS 578T breast) was 1.62 µM and the GI50 (U251 glioblastoma) was 0.0133 µM. It also gave a TGI (U251 glioblastoma) of 10.4 µM, a GI50 (SW-620 colon) of less than 0.01 µM and a TGI (SW-620 colon) of 10.2 µM. The GI50 (SNB-75 CNS) was 1.57 µM, the TGI (SNB-75 CNS) was 3.2 µM and the GI50 (HOP-92 NSCLC) was 2.31 µM. It also gave a TGI (HOP-92 NSCLC) of 11.6 µM, a GI50 (COLO 205 colon) of less than 0.01 µM and a TGI (COLO 205 colon) of 1.45 µM. The GI50 (LOX IMVI melanoma) was less than 0.01 µM, the TGI (LOX IMVI melanoma) was 0.213 µM and the GI50 (CAKI-1 renal) was 0.0388 µM. It also gave a TGI (CAKI-1 renal) of 12.3 µM, a GI50 ([…]-0 renal) of less than 0.01 µM and a TGI (786-0 renal) of 6.18 µM. For the same molecule, the GI50 (A549 NSCLC) was 0.0663 µM, the TGI (A549 NSCLC) was 12 µM and the GI50 (CCRF-CEM leukemia) was 0.0546 µM. For the same molecule, the TGI (CCRF-CEM leukemia) was 1.36 µM, the GI50 (HCC-2998 colon) was less than 0.01 µM and the TGI (HCC-2998 colon) was 4.21 µM. For the same molecule, the GI50 (SF-295 CNS) was 0.0675 µM, the TGI (SF-295 CNS) was 4.57 µM and the GI50 (MOLT-4 leukemia) was less than 0.01 µM. For the same molecule, the TGI (MOLT-4 leukemia) was less than 0.01 µM, the GI50 (SF-539 CNS) was less than 0.01 µM and the TGI (SF-539 CNS) was 1.3 µM. It also gave a GI50 (SK-OV-3 ovarian) of 1.13 µM, a TGI (SK-OV-3 ovarian) of 6.25 µM and a GI50 (NCI-H23 lung) of less than 0.01 µM. The TGI (NCI-H23 lung) was 1.47 µM, the GI50 (BT-549 breast) was 0.0113 µM and the TGI (BT-549 breast) was 0.205 µM. The GI50 (HCT-15 colon) was 0.0659 µM, the TGI (HCT-15 colon) was 4.37 µM and the GI50 (A498 renal) was 0.0197 µM. It also gave a TGI (A498 renal) of 6.54 µM, a GI50 (M14 melanoma) of 0.0168 µM and a TGI (M14 melanoma) of 2.21 µM. The GI50 (MDA-MB-468 breast) was 1.36 µM, the TGI (MDA-MB-468 breast) was 3.01 µM and the GI50 (KM12 colon) was less than 0.01 µM. The TGI (KM12 colon) was 1.68 µM, the GI50 (MALME-3M melanoma) was 0.0276 µM and the TGI (MALME-3M melanoma) was 2.42 µM. It also gave a GI50 (NCI/ADR-RES ovarian) of 2.5 µM, a TGI (NCI/ADR-RES ovarian) of 12.6 µM and a GI50 (OVCAR-3 ovarian) of less than 0.01 µM. The TGI (OVCAR-3 ovarian) was less than 0.01 µM, the GI50 (HOP-62 NSCLC) was less than 0.01 µM and the TGI (HOP-62 NSCLC) was 0.0182 µM. For the same molecule, the GI50 (HT29 colon) was 2.06 µM, the TGI (HT29 colon) was 28.3 µM and the GI50 (MDA-MB-231 breast) was 1.19 µM. For the same molecule, the TGI (MDA-MB-231 breast) was 10.3 µM, the GI50 (MCF7 breast) was less than 0.01 µM and the TGI (MCF7 breast) was 1.45 µM. It also gave a GI50 (PC-3 prostate) of less than 0.01 µM, a TGI (PC-3 prostate) of 10.8 µM and a GI50 (EKVX NSCLC) of 0.361 µM. For the same molecule, the TGI (EKVX NSCLC) was 3.64 µM, the GI50 (K-562 leukemia) was less than 0.01 µM and the TGI (K-562 leukemia) was 11.2 µM. For the same molecule, the GI50 (NCI-H460 NSCLC) was less than 0.01 µM, the TGI (NCI-H460 NSCLC) was less than 0.01 µM and the GI50 (DU-145 prostate) was less than 0.01 µM. It also gave a TGI (DU-145 prostate) of 3.79 µM, a GI50 (SR leukemia) of less than 0.01 µM and a TGI (SR leukemia) of less than 0.01 µM. For the same molecule, the GI50 (SK-MEL-28 melanoma) was less than 0.01 µM, the TGI (SK-MEL-28 melanoma) was 1.52 µM and the GI50 (OVCAR-5 ovarian) was 0.182 µM. The TGI (OVCAR-5 ovarian) was 9.82 µM, the GI50 (IGROV1 ovarian) was less than 0.01 µM and the TGI (IGROV1 ovarian) was 13.8 µM. It also gave a GI50 (RXF 393 renal) of 1.51 µM, a TGI (RXF 393 renal) of 2.99 µM and a GI50 (SK-MEL-5 melanoma) of 0.0438 µM. The TGI (SK-MEL-5 melanoma) was 1.42 µM, the GI50 (SF-268 CNS) was 0.132 µM and the TGI (SF-268 CNS) was 1.99 µM. The GI50 (UO-31 renal) was 0.335 µM, the TGI (UO-31 renal) was 8.12 µM and the GI50 (SK-MEL-2 melanoma) was 1.22 µM. The TGI (SK-MEL-2 melanoma) was 3.17 µM, the GI50 (OVCAR-4 ovarian) was 0.0213 µM and the TGI (OVCAR-4 ovarian) was 1.42 µM. The GI50 (UACC-257 melanoma) was 1.02 µM, the TGI (UACC-257 melanoma) was 3.45 µM and the GI50 (NCI-H522 lung) was less than 0.01 µM. The TGI (NCI-H522 lung) was 2.42 µM, the GI50 (OVCAR-8 ovarian) was 0.0743 µM and the TGI (OVCAR-8 ovarian) was 6.28 µM. For the same molecule, the GI50 (ACHN renal) was 0.0736 µM, the TGI (ACHN renal) was 8.68 µM and the GI50 (NCI-H322M lung) was 0.644 µM. The TGI (NCI-H322M lung) was 3.14 µM, the GI50 (HL-60(TB) leukemia) was less than 0.01 µM and the TGI (HL-60(TB) leukemia) was 0.126 µM. It also gave a GI50 (SNB-19 CNS) of 1 µM, a TGI (SNB-19 CNS) of 12.8 µM and a GI50 (NCI-H226 lung) of 0.577 µM. The TGI (NCI-H226 lung) was 12.6 µM.
